Measurements published in US20180028667A1, “AQUEOUS LIQUID AGENT” (SENJU PHARMACEUTICAL CO., LTD., priority 2014, published 2018).

Test: Measurement of solubility of compound A in various solvents (oil components)
Assay type: physicochemical
Details: 25° C., stirred 24 hr
Experimental: An excess amount (about 0.2 g) of compound A was added to various solvents (10 g) described in Table 7, and the mixture was stirred at 25° C. for 24 hr. Thereafter, the solvent was filtered off through a 0.45 μm non-aqueous filter while maintaining the temperature. The content of compound A contained in the filtrate was measured in the same manner as in Experimental Example 1, and the solubility of compound A in various solvents was calculated.

With `Cc1cc(C(=O)Nc2cc(Oc3ccc4nc(NC(=O)C5CC5)cn4n3)ccc2C)n(C)n1` [compound A, N-[5-({2-[(cyclopropylcarbonyl)amino]imidazo[1,2-b]pyridazin-6-yl}oxy)-2-methylphenyl]-1,3-dimethyl-1H-pyrazole-5-carboxamide] as the compound, how does the solubility (solvent castor oil) read?
Its solubility is 0.311%.

What about the solubility (solvent corn oil) of the same compound?
The solubility was 0.008%.

And the solubility (solvent cottonseed oil)?
The solubility was 0.008%.

And the solubility (solvent olive oil)?
The solubility was 0.009%.

What about the solubility (solvent rape seed oil) of the same compound?
The solubility was 0.007%.

And the solubility (solvent soybean oil)?
Its solubility is 0.007%.
